US11174252B2, “Heterocyclic compounds as kinase inhibitors” (priority 2018, dated 2021)
pIC50: −log10 of the molar value. Like-named read-outs stand apart in the source and are kept apart here.

Key:
[1] = molecular target: CDK6 (Homo sapiens (Human), UniProt Q00534); assay: biochemical; format: biochemical
[2] = tested on: MCF-7; assay: Cancer cell proliferation assay, single agent; format: cell-based; conditions: Homo sapiens
[3] = tested on: DU4475; assay: Cancer cell proliferation assay, single agent; format: cell-based; conditions: Homo sapiens
[4] = molecular target: CDK4 (Homo sapiens (Human), UniProt P11802); assay: In vitro kinase inhibition, luminescence (ADP-Glo) with retinoblastoma substrate; format: biochemical
[5] = molecular target: FMS kinase (Homo sapiens (Human), UniProt P07333); assay: LanthaScreen kinase assay (ATP, fluorescent-PolyGT substrate, TR-FRET); format: biochemical
[6] = MCF7, MCF-7 cells, treated for 24-168 hours, read-out: IC50 (nM) MCF-7
[7] = DU-4475, DU4475 cells, treated for 24-168 hours, read-out: IC50 (nM) DU4475
[8] = DU-4475, read-out: IC50 (nM) DU4475
[9] = MCF7, read-out: IC50 (nM) MCF-7

CDK4, sequence (P11802 whole entry): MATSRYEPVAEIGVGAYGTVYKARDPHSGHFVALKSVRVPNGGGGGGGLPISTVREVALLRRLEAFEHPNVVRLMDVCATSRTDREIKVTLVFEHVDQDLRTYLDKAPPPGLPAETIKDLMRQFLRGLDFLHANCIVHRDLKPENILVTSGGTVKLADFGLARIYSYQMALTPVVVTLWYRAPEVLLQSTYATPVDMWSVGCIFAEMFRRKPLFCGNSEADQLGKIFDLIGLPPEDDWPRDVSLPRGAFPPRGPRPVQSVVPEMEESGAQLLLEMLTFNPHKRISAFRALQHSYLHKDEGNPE
CDK4, sequence (P24385 whole entry partner): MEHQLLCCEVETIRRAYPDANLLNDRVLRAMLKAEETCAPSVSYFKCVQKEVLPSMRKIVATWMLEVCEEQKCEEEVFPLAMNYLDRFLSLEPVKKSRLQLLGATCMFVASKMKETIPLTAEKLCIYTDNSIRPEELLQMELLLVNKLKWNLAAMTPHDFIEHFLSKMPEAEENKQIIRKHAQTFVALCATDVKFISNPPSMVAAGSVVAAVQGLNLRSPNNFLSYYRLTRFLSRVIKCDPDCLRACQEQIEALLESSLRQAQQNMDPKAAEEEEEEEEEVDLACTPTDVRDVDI
FMS kinase, sequence (P07333 20-972): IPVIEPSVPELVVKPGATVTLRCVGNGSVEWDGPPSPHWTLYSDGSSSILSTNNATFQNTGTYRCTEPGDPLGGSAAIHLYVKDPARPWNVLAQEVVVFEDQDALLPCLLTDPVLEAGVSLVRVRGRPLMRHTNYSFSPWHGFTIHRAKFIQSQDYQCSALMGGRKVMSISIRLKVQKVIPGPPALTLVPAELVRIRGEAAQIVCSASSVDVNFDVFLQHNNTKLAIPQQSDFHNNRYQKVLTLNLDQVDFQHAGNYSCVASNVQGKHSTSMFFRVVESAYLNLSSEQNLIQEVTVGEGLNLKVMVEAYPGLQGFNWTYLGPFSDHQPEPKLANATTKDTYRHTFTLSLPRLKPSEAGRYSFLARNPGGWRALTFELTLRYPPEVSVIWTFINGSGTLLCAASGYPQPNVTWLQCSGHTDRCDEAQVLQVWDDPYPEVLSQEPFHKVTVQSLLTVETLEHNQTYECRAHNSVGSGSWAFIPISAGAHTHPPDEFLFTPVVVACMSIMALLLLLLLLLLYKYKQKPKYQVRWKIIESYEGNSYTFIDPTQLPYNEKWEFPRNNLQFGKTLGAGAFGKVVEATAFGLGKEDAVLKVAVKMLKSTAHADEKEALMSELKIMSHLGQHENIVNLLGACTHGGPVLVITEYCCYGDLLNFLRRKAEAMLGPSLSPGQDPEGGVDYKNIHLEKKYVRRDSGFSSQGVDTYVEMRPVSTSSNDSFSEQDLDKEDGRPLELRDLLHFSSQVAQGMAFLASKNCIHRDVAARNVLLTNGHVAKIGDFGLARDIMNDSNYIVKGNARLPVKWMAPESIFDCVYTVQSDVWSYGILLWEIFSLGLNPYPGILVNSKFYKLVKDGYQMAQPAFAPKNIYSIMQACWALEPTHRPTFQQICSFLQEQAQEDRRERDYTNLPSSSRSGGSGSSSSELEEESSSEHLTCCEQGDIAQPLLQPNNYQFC

SMILES	pIC50 [1]	IC50 [2, 6]	IC50 [3, 7]	pIC50 [4]	IC50 [3, 8]	pIC50 [5]	IC50 [2, 9]
CC(C)N1CCOc2c(F)cc(-c3nc(Nc4ccc(C(N)=O)c(F)c4)ncc3F)cc21 [Compound 790, 2-fluoro-4-((5-fluoro-4-(8-fluoro-4-isopropyl-3,4-dihydro-2H-benzo[b][1,4]oxazin-6-yl)pyrimidin-2-yl)amino)benzamide]	8.52	17 nM	20 nM	–	–	–	–
CC(C)N1CCOc2c(F)cc(-c3nc(Nc4ccc(C(N)=O)cn4)ncc3F)cc21 [Compound 521, 6-((5-fluoro-4-(8-fluoro-4-isopropyl-3,4-dihydro-2H-benzo[b][1,4]oxazin-6-yl)pyrimidin-2-yl)amino)nicotinamide]	7.70	3670 nM	7700 nM	8.26	–	–	–
CC(C)N1CCOc2c(F)cc(-c3nc(Nc4ccc(CN5CCN(C)CC5)c(F)c4)ncc3F)cc21 [Compound 792, 5-fluoro-N-(3-fluoro-4-((4-methylpiperazin-1-yl)methyl)phenyl)-4-(8-fluoro-4-isopropyl-3,4-dihydro-2H-benzo[b][1,4]oxazin-6-yl)pyrimidin-2-amine]	8.40	32 nM	–	8.40	75 nM	–	–
Cc1nc(Nc2ncc(F)c(-c3cc(F)c4c(c3)N(C(C)C)CCO4)n2)ccc1C1CCN(C)CC1 [Compound 503, 5-fluoro-4-(8-fluoro-4-isopropyl-3,4-dihydro-2H-benzo[b][1,4]oxazin-6-yl)-N-(6-methyl-5-(1-methylpiperidin-4-yl)pyridin-2-yl)pyrimidin-2-amine]	7.74	240 nM	1260 nM	8.30	–	–	–
CC(C)N1CCOc2c(F)cc(-c3nc(Nc4ccc(S(=O)(=O)N5CCN(C)CC5)cc4)ncc3F)cc21 [Compound 522, 5-fluoro-4-(8-fluoro-4-isopropyl-3,4-dihydro-2H-benzo[b][1,4]oxazin-6-yl)-N-(4-((4-methylpiperazin-1-yl)sulfonyl)phenyl)pyrimidin-2-amine]	6.98	345 nM	395 nM	7.44	–	–	–
CC(C)N1CCOc2c(F)cc(-c3nc(Nc4ccc(N5CCC(N)CC5)cn4)ncc3F)cc21 [Compound 788, N-(5-(4-aminopiperidin-1-yl)pyridin-2-yl)-5-fluoro-4-(8-fluoro-4-isopropyl-3,4-dihydro-2H-benzo[b][1,4]oxazin-6-yl)pyrimidin-2-amine]	8.40	130 nM	–	8.70	920 nM	–	–
CC1CN(c2ccc(Nc3ncc(F)c(-c4cc(F)c5c(c4)N(C(C)C)CCO5)n3)nc2)CC(C)O1 (stereo not shown) [Compound 515, N-(5-(2,6-dimethylmorpholino)pyridin-2-yl)-5-fluoro-4-(8-fluoro-4-isopropyl-3,4-dihydro-2H-benzo[b][1,4]oxazin-6-yl)pyrimidin-2-amine]	< 6.70	2500 nM	> 10000 nM	6.84	–	–	–
CC(C)N1CCOc2c(F)cc(-c3nc(Nc4ccc(C5CCN(C)CC5)nn4)ncc3F)cc21 [Compound 517, N-(5-fluoro-4-(8-fluoro-4-isopropyl-3,4-dihydro-2H-benzo[b][1,4]oxazin-6-yl)pyrimidin-2-yl)-6-(1-methylpiperidin-4-yl)pyridazin-3-amine]	8.40	108 nM	275 nM	8.82	–	–	–
CC(C)N1CCOc2c(F)cc(-c3nc(Nc4cccc(S(N)(=O)=O)c4)ncc3F)cc21 [Compound 520]	–	13 nM	< 7 nM	–	–	–	–
CC(C)N1CCOc2c(F)cc(-c3nc(Nc4ccc(N5CCN(C(=O)CO)CC5)cn4)ncc3F)cc21 [Compound 506, 1-(4-(6-((5-fluoro-4-(8-fluoro-4-isopropyl-3,4-dihydro-2H-benzo[b][1,4]oxazin-6-yl)pyrimidin-2-yl)amino)pyridin-3-yl)piperazin-1-yl)-2-hydroxyethan-1-one]	–	354 nM	–	–	1500 nM	–	–
CC(C)N1CCOc2c(F)cc(-c3nc(Nc4ccc(C5CCNCC5)c(C(F)(F)F)c4)ncc3F)cc21 [Compound 438, 5-fluoro-4-(8-fluoro-4-isopropyl-3,4-dihydro-2H-benzo[b][1,4]oxazin-6-yl)-N-(4-(piperidin-4-yl)-3-(trifluoromethyl)phenyl)pyrimidin-2-amine]	7.13	200 nM	–	7.39	–	8.30	–
CCN1CCOc2c(F)cc(-c3nc(Nc4ccc(N5CCNCC5)c(F)c4)ncc3F)cc21 [Compound 35, 4-(4-ethyl-8-fluoro-3,4-dihydro-2H-benzo[b][1,4]oxazin-6-yl)-5-fluoro-N-(3-fluoro-4-(piperazin-1-yl)phenyl)pyrimidin-2-amine]	8.52	–	–	8.60	–	7.24	20 nM
CC1CN(c2ccc(Nc3ncc(F)c(-c4cc(F)c5c(c4)N(C(C)C)CCO5)n3)nc2)CCN1 (stereo not shown) [Compound 10, 5-fluoro-4-(8-fluoro-4-isopropyl-3,4-dihydro-2H-benzo[b][1,4]oxazin-6-yl)-N-(5-(3-methylpiperazin-1-yl)pyridin-2-yl)pyrimidin-2-amine]	8.60	–	–	8.35	–	6.24	280 nM
CC(C)N1CCOc2c(F)cc(-c3nc(Nc4cn(C5CCN(C)CC5)cn4)ncc3F)cc21 [Compound 496, 5-fluoro-4-(8-fluoro-4-isopropyl-3,4-dihydro-2H-benzo[b][1,4]oxazin-6-yl)-N-(1-(1-methylpiperidin-4-yl)-1H-imidazol-4-yl)pyrimidin-2-amine]	–	–	–	–	3420 nM	–	1450 nM
CC(C)N1CCOc2c(F)cc(-c3nc(Nc4ccc5c(c4)CC(N(C)C)CC5)ncc3F)cc21 (stereo not shown) [Compound 206, N7-(5-fluoro-4-(8-fluoro-4-isopropyl-3,4-dihydro-2H-benzo[b][1,4]oxazin-6-yl)pyrimidin-2-yl)-N2,N2-dimethyl-1,2,3,4-tetrahydronaphthalene-2,7-diamine]	7.00	670 nM	–	7.25	–	8.60	–
CCN1CCN(Cc2ccc(Nc3ncc(F)c(-c4cc(F)c5c(c4)N(C4CCC(N)CC4)CCO5)n3)nc2)CC1 (stereo not shown) [Compound 9, 4-(4-(4-aminocyclohexyl)-8-fluoro-3,4-dihydro-2H-benzo[b][, 4]oxazin-6-yl)-N-(5-((4-ethylpiperazin-1-yl)methyl)pyridin-2-yl)-5-fluoropyrimidin-2-amine]	6.76	–	–	< 6.74	–	< 5.30	3260 nM
CC1CN(C(=O)c2ccc(Nc3ncc(F)c(-c4cc(F)c5c(c4)N(C(C)C)CCO5)n3)nc2)CC(C)O1 (stereo not shown) [Compound 511, (2,6-dimethylmorpholino)(6-((5-fluoro-4-(8-fluoro-4-isopropyl-3,4-dihydro-2H-benzo[b][1,4]oxazin-6-yl)pyrimidin-2-yl)amino)pyridin-3-yl)methanone]	–	648 nM	3790 nM	–	–	–	–
CC(C)N1CCOc2c(F)cc(-c3nc(Nc4cn(C5CCNCC5)cn4)ncc3F)cc21 [Compound 504, 5-fluoro-4-(8-fluoro-4-isopropyl-3,4-dihydro-2H-benzo[b][1,4]oxazin-6-yl)-N-(1-(piperidin-4-yl)-1H-imidazol-4-yl)pyrimidin-2-amine]	–	–	–	–	4150 nM	–	1940 nM
